Assay [1] deals with PIK3CD (Human) (UniProt O00329). Nature of the assay: Enzyme Assay.
The next assay deals with PIK3CB (Human) (UniProt P42338). Nature of the assay: Enzyme Assay.
The next assay addresses PIK3CG (human) (UniProt P48736). Kind of assay: Enzyme Assay.
The target of another assay is PIK3CA (human) (UniProt P42336). Nature of the assay: Enzyme Assay.
The target in assay [2] is PIK3CD (Human) (UniProt O00329). Kind of assay: Cell-Based Assay. As to conditions: raji.

PIK3CB (Human), sequence (P42338 whole entry, looked up): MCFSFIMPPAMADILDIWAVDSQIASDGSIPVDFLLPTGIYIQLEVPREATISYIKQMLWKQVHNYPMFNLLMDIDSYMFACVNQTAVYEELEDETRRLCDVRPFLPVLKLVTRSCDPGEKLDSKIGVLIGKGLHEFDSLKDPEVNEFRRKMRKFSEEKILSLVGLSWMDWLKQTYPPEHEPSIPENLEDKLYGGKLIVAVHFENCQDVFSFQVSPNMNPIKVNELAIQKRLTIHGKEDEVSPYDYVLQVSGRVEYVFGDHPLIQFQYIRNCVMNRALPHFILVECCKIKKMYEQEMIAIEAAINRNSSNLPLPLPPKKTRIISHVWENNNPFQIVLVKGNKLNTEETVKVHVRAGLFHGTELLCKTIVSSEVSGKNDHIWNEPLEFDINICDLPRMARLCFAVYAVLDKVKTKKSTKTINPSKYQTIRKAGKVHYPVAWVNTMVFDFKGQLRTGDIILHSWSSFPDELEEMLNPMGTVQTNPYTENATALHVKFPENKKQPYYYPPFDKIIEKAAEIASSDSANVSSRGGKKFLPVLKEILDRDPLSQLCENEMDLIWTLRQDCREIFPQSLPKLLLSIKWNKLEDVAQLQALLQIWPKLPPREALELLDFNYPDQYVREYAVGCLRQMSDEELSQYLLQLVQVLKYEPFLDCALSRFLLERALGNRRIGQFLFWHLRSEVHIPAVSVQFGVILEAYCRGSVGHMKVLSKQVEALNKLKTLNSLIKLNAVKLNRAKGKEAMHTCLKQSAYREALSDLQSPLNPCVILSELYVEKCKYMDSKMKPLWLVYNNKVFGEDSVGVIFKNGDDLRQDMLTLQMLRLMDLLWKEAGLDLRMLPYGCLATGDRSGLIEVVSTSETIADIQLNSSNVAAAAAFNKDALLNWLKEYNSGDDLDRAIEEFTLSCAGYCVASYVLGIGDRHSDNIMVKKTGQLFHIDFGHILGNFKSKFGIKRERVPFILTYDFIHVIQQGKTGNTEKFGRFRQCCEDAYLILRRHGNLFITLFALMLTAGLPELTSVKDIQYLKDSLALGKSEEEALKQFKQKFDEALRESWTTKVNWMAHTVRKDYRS
PIK3CD (Human), sequence (O00329 whole entry, looked up): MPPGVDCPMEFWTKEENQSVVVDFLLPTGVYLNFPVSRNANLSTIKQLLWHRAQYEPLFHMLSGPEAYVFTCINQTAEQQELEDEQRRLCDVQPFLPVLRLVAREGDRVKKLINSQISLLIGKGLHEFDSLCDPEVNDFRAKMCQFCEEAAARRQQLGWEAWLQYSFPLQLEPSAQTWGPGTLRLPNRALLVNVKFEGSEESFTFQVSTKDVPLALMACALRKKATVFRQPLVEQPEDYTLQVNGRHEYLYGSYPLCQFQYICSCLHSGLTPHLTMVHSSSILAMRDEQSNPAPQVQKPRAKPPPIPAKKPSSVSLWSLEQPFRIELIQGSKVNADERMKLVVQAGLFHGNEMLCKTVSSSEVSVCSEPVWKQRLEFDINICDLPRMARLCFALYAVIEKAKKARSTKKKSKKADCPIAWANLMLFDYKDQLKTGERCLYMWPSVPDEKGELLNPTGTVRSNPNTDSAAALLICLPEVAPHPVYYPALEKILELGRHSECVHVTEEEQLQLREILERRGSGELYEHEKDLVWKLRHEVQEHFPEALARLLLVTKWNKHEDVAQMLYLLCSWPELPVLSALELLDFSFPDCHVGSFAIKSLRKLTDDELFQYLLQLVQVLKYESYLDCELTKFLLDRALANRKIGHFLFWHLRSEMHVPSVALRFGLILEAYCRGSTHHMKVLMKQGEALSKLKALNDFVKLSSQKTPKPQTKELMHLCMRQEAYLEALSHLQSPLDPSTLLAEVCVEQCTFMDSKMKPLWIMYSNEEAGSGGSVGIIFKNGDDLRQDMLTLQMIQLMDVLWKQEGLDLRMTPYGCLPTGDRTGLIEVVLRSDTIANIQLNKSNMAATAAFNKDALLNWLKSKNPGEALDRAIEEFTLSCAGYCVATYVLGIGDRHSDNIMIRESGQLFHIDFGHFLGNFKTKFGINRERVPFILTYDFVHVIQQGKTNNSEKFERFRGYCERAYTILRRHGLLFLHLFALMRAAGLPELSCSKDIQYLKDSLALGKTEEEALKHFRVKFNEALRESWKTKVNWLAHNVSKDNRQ
PIK3CG (human), sequence (P48736 whole entry, looked up): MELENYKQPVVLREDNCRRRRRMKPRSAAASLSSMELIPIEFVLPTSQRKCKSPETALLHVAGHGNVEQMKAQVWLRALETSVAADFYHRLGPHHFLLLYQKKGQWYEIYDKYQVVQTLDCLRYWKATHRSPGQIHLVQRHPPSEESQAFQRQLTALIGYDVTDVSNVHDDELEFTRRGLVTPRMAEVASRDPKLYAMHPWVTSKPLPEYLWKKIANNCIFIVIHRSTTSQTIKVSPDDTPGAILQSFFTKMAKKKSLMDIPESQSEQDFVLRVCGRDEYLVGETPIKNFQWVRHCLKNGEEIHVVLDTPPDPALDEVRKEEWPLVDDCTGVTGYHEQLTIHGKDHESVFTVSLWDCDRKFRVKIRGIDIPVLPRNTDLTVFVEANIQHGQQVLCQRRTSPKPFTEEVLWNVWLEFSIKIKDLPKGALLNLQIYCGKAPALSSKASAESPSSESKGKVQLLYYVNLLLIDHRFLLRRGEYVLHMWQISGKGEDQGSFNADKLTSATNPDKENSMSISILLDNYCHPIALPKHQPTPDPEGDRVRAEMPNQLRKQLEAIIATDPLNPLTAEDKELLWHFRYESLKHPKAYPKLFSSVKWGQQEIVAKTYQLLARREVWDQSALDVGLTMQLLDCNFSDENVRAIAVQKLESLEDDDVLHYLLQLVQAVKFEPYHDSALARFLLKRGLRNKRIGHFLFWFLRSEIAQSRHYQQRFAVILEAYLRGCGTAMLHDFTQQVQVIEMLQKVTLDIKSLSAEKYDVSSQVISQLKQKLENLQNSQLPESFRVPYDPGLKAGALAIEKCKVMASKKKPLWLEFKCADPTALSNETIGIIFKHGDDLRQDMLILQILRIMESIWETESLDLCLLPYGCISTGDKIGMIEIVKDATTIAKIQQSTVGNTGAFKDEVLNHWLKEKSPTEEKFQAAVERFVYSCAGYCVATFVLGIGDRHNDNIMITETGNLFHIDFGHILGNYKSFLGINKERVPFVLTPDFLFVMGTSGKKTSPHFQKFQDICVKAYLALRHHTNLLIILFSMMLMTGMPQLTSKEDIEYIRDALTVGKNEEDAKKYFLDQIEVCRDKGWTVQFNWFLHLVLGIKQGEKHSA
PIK3CA (human), sequence (P42336 whole entry, looked up): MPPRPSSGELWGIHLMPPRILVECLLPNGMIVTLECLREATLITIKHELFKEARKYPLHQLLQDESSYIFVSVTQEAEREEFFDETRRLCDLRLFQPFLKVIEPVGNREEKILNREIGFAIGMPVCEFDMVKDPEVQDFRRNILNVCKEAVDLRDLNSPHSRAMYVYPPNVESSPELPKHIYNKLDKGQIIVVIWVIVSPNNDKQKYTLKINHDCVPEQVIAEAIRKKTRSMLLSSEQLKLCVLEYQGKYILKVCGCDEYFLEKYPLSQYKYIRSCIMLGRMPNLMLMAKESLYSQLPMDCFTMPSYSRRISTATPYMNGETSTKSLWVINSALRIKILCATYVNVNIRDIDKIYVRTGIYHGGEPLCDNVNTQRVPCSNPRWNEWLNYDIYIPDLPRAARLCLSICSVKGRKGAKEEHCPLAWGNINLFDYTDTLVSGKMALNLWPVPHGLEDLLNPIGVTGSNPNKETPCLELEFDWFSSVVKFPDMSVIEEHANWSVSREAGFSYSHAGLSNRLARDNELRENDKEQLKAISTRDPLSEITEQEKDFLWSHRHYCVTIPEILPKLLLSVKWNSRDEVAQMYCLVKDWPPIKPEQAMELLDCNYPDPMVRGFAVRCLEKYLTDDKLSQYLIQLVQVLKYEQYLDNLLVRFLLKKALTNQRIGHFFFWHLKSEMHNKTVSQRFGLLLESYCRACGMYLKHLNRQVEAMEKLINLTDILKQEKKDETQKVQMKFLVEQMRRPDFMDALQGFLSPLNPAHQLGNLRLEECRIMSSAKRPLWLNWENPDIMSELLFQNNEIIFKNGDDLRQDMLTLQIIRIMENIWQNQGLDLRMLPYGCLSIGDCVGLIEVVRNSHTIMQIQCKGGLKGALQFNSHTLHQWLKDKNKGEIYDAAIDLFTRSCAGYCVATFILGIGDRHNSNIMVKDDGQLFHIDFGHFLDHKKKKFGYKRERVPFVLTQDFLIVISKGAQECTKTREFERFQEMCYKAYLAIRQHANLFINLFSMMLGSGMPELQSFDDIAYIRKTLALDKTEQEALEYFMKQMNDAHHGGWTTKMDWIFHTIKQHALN

As to `C[C@H](NC(=O)c1c(N)nn2cccnc12)c1cc2cccc(Cl)c2c(=O)n1CCNCCO`, the IC50 against PIK3CD (Human) [1] is 100 to 1000 nM; against PIK3CB (Human), < 0.1 µM.

`C[C@H](NC(=O)c1c(N)nn2cccnc12)c1cc2cccc(C#CCNC(=O)c3ccc(C#N)o3)c2c(=O)n1-c1ccccc1`: the IC50 was 100 to 1000 nM against PIK3CG (human), 0.1 to 1 µM against PIK3CA (human) and < 100 nM against PIK3CD (Human) [2].

On to `C[C@H](NC(=O)c1c(N)nn2cccnc12)c1cc2cccc(/C=N\O)c2c(=O)n1-c1ccccc1`, for which the IC50 is 100 to 1000 nM on PIK3CG (human), ≥ 10 µM against PIK3CA (human) and ≥ 10 µM against PIK3CB (Human).

Regarding `C[C@H](NC(=O)c1cnc2cccnn12)c1cc2cccc(Cl)c2c(=O)n1-c1ccccc1`, the concentration for half-maximal inhibition (IC50) on PIK3CD (Human) [1] and at PIK3CD (Human) [2] was 100 to 1000 nM each time.

`COc1ccc(-c2cnc(N)c(C(=O)N[C@@H](C)c3cc4cccc(Cl)c4c(=O)n3-c3ccccc3)n2)cc1F`: the concentration for half-maximal inhibition (IC50) against PIK3CA (human) and at PIK3CB (Human) was ≥ 10 µM throughout.

In the case of `C[C@H](NC(=O)c1c(N)nn2cccnc12)c1cc2cccc(Cl)c2c(=O)n1-c1ccccc1`, the 50% inhibitory concentration (IC50) is 100 to 1000 nM on PIK3CD (Human) [1], 0.1 to 1 µM at PIK3CB (Human) and < 100 nM against PIK3CD (Human) [2].

As to `C[C@H](NC(=O)c1c(N)nn2cccnc12)c1cc2ccsc2c(=O)n1-c1ccccc1`, the IC50 was ≥ 10 µM against PIK3CA (human) and 100 to 1000 nM against PIK3CD (Human) [2].

Regarding `Nc1nccnc1C(=O)N1CCC[C@H]1c1cc2cccc(Cl)c2c(=O)n1-c1ccccc1`, the IC50 against PIK3CG (human) is ≥ 10000 nM; on PIK3CA (human), ≥ 10 µM; at PIK3CB (Human), ≥ 10 µM.

On to `C[C@H](NC(=O)c1cnn2cccnc12)c1cc2cccc(C#CCNC(=O)[C@@H]3CCCO3)c2c(=O)n1-c1ccccc1`, for which the concentration for half-maximal inhibition (IC50) on PIK3CG (human) is < 100 nM; against PIK3CA (human) it was 0.1 to 1 µM; on PIK3CB (Human), 0.1 to 1 µM; on PIK3CD (Human) [2] it was < 100 nM.

In the case of `CC(NC(=O)c1c(N)nn2cccnc12)c1cc2cccc(Cl)c2nc1-c1ccccc1` (centres undefined), the IC50 is ≥ 10 µM against PIK3CA (human) and < 100 nM at PIK3CD (Human) [2].

In the case of `C[C@H](NC(=O)c1c(N)nn2cccnc12)c1cc2cccc(CNC[C@@H]3CCCO3)c2c(=O)n1-c1ccccc1`, the concentration for half-maximal inhibition (IC50) against PIK3CA (human) and against PIK3CB (Human) was ≥ 10 µM each time.

Take `CC(C)Oc1cc(-c2cccc3cc([C@H](C)NC(=O)c4c(N)nn5cccnc45)n(-c4ccccc4)c(=O)c23)ccn1`: the IC50 at PIK3CG (human) is 100 to 1000 nM; against PIK3CA (human) it was ≥ 10 µM; on PIK3CD (Human) [2], < 100 nM.

With `CNCCn1c([C@H](C)NC(=O)c2c(N)nn3cccnc23)cc2cccc(Cl)c2c1=O`, the 50% inhibitory concentration (IC50) is < 100 nM against PIK3CD (Human) [1] and < 0.1 µM against PIK3CB (Human).

Take `Cc1cnc(C(=O)N[C@@H](C)c2c(Br)c3cccc(Cl)c3c(=O)n2-c2ccccc2)c(N)n1`: the concentration for half-maximal inhibition (IC50) against PIK3CA (human) and against PIK3CB (Human) was ≥ 10 µM in each case.

As for `CNCc1cccc2cc([C@H](C)NC(=O)c3c(N)nn4cccnc34)n(-c3ccccc3)c(=O)c12`, the IC50 against PIK3CG (human) was ≥ 10000 nM; against PIK3CA (human), ≥ 10 µM; against PIK3CB (Human), ≥ 10 µM.

As for `C[C@H](NC(=O)c1c(N)ncc2cccnc12)c1cc2cccc(N3CCOCC3)c2c(=O)n1-c1ccccc1`, the half-inhibitory concentration (IC50) against PIK3CG (human) was 100 to 1000 nM; at PIK3CA (human) it was ≥ 10 µM; on PIK3CB (Human), ≥ 10 µM; against PIK3CD (Human) [2] it was < 100 nM.

For `C[C@H](NC(=O)c1c(N)nn2cccnc12)c1cc2sccc2c(=O)n1-c1ccccc1`, the values for the IC50 against PIK3CA (human) and on PIK3CD (Human) [2] were ≥ 10 µM and 100 to 1000 nM, respectively.

Regarding `C[C@H](NC(=O)c1nccnc1N)c1cc2cccc(-c3cnn(C)c3)c2c(=O)n1-c1ccccc1`, the IC50 is 100 to 1000 nM against PIK3CG (human), ≥ 10 µM on PIK3CA (human), ≥ 10 µM at PIK3CB (Human) and < 100 nM against PIK3CD (Human) [2].

For `COc1cccc2c(C)c([C@H](C)NC(=O)c3c(N)nn4cccnc34)n(-c3ccccc3)c(=O)c12`, the half-maximal inhibitory concentration (IC50) is 100 to 1000 nM against PIK3CG (human), ≥ 10 µM against PIK3CA (human) and ≥ 10 µM against PIK3CB (Human).

With `C[C@H](NC(=O)c1cnn2cccnc12)c1cc2cccc(Cl)c2c(=O)n1-c1ccccc1`, the values for the 50% inhibitory concentration (IC50) on PIK3CA (human) and on PIK3CD (Human) [2] were ≥ 10 µM and 100 to 1000 nM, respectively.

On to `C[C@H](NC(=O)c1c(N)nn2cccnc12)c1cc2cccc(C3CC3)c2c(=O)n1-c1ccccc1`, for which the IC50 is ≥ 10 µM against PIK3CA (human), ≥ 10 µM against PIK3CB (Human) and 100 to 1000 nM at PIK3CD (Human) [2].

As to `CC(C)c1ccn2nc(N)c(C(=O)N[C@@H](C)c3cc4cccc(Cl)c4c(=O)n3-c3ccccc3)c2n1`, the IC50 against PIK3CA (human) was ≥ 10 µM; at PIK3CD (Human) [2] it was 100 to 1000 nM.

With `CC(C)Oc1cc(-c2cccc3nc([C@H](C)NC(=O)c4c(N)nn5cccnc45)n(-c4ccccc4)c(=O)c23)ccn1`, the IC50 at PIK3CA (human) was ≥ 10 µM; at PIK3CD (Human) [2], < 100 nM.

Turning to `C=CC(=O)NCC#Cc1cccc2cc([C@H](C)NC(=O)c3c(N)nn4cccnc34)n(-c3ccccc3)c(=O)c12`, the values for the 50% inhibitory concentration (IC50) at PIK3CD (Human) [1], against PIK3CG (human) and on PIK3CD (Human) [2] were 100 to 1000 nM, < 100 nM and < 100 nM, respectively.

As for `C[C@H](NC(=O)c1c(N)nn2cccnc12)c1c(Br)c2cccc(Cl)c2c(=O)n1-c1ccccc1`, the IC50 against PIK3CD (Human) [1] is 100 to 1000 nM; on PIK3CG (human), < 100 nM; against PIK3CD (Human) [2], < 100 nM.

In the case of `C[C@H](NC(=O)c1c(N)nn2cccnc12)c1cc2cccc(C#N)c2c(=O)n1-c1ccccc1`, the figures for the concentration for half-maximal inhibition (IC50) against PIK3CG (human), on PIK3CA (human) and at PIK3CD (Human) [2] were 100 to 1000 nM, ≥ 10 µM and < 100 nM, respectively.
